Test results from patent US20220062278A1, “SMALL MOLECULE INHIBITORS OF THE ANDROGEN RECEPTOR ACTIVITY AND/OR EXPRESSION AND USES THEREOF” (Arizona Board of Regents on Behalf of the Univeristy of …, priority 2018, published 2022).

The compounds below were run against T1, AR (Homo sapiens, UniProt P10275) (assay: GeneBlazer assay, inhibition against AR activity). Conditions: 10 uM; Table II.
T1 sequence (P10275 669-920 limits assumed): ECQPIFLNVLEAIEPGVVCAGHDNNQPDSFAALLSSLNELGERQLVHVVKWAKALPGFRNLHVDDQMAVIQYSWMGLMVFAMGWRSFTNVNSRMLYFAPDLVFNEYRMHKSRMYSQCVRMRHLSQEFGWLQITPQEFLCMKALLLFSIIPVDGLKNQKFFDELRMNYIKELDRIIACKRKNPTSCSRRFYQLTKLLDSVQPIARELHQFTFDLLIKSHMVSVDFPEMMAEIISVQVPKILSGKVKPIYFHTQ
Format: cell-based
Text: Tables II, III and IV show % inhibition against AR activity at 10 μm within a GeneBlazer assay, and IC50 values (nM) in GeneBlazer assay.

| Compound | inhibition at 10 µM [%] |
| --- | --- |
| CCCCn1nnnc1C(c1cccc(O)c1)N1CCN(c2ccccc2)CC1 (centres unmarked) [Compound 67, 3-((1-butyl-1H-tetrazol-5-yl)(4-phenylpiperazin-1-yl)methyl)phenol] | 63.9 |
| CCCCn1nnnc1C(c1cccc(O)c1)N1CCN(c2ccc(C(C)=O)cc2)CC1 (centres unmarked) [Compound 63, 1-(4-(4-((1-butyl-1H-tetrazol-5-yl)(3-hydroxyphenyl)methyl)piperazin-1-yl)phenyl)ethanone] | 47.9 |
| CCCCn1nnnc1C(c1cccc(O)c1)N1CCN(C(=O)OC(C)(C)C)CC1 (centres unmarked) [Compound 56, tert-butyl 4-((1-butyl-1H-tetrazol-5-yl)(3-hydroxyphenyl)methyl)piperazine-1-carboxylate] | 24.6 |
| CCCCn1nnnc1C(c1cccc(O)c1)N1CCN(C(=O)OCc2ccccc2)CC1 (centres unmarked) [Compound 57, benzyl 4-((1-butyl-1H-tetrazol-5-yl)(3-hydroxyphenyl)methyl)piperazine-1-carboxylate] | 24.9 |
| CCCCn1nnnc1C(c1cccc(O)c1)N1CCN(c2ccccc2F)CC1 (centres unmarked) [Compound 65, 3-((1-butyl-1H-tetrazol-5-yl)(4-(2-fluorophenyl)piperazin-1-yl)methyl)phenol] | 79.8 |
| CCCCn1nnnc1C(c1cccc(O)c1)N1CCN(c2ccccn2)CC1 (centres unmarked) [Compound 62, 3-((1-butyl-1H-tetrazol-5-yl)(4-(pyridin-2-yl)piperazin-1-yl)methyl)phenol] | 19.9 |
| Oc1cccc(C(c2nnnn2C2CCCCC2)N2CCN(c3c(Cl)cncc3Cl)CC2)c1 (centres unmarked) [Compound 18, 3-((1-cyclohexyl-1H-tetrazol-5-yl)(4-(3,5-dichloropyridin-4-yl)piperazin-1-yl)methyl)phenol] | 110 |
| CCCCn1nnnc1CN1CCN(c2c(Cl)cncc2Cl)CC1 [Compound 5, 1-((1-butyl-1H-tetrazol-5-yl)methyl)-4-(3,5-dichloropyridin-4-yl)piperazine] | 95.2 |
| CCCCn1nnnc1C(c1ccc2[nH]ccc2c1)N1CCN(c2c(Cl)cncc2Cl)CC1 (centres unmarked) [Compound 12, 5-((1-butyl-1H-tetrazol-5-yl)(4-(3,5-dichloropyridin-4-yl)piperazin-1-yl)methyl)-1H-indole] | 93.9 |
| CCCCn1nnnc1C(c1cccc(O)c1)N1CCN(c2ccc(F)cc2)CC1 (centres unmarked) [Compound 54, 3-((1-butyl-1H-tetrazol-5-yl)(4-(4-fluorophenyl)piperazin-1-yl)methyl)phenol] | 51.3 |
| CC(C)(C)n1nnnc1C(c1cccc(O)c1)N1CCN(C/C=C/c2ccccc2)CC1 (centres unmarked) [Compound 68, (E)-3-((1-(tert-butyl)-1H-tetrazol-5-yl)(4-cinnamylpiperazin-1-yl)methyl)phenol] | 17.2 |

Second part, the compound after the results:

| inhibition at 10 µM [%] | Compound |
| --- | --- |
| 111 | CC(C)(C)n1nnnc1C(/C=C/c1ccccc1)N1CCN(c2c(Cl)cncc2Cl)CC1 (centres unmarked) [Compound 43, (E)-1-(1-(1-(tert-butyl)-1H-tetrazol-5-yl)-3-phenylallyl)-4-(3,5-dichloropyridin-4-yl)piperazine] |
| 111 | CC(C)(C)n1nnnc1C(c1ccc(F)cc1)N1CCN(c2c(Cl)cncc2Cl)CC1 (centres unmarked) [Compound 37, 1-((1-(tert-butyl)-1H-tetrazol-5-yl)(4-fluorophenyl)methyl)-4-(3,5-dichloropyridin-4-yl)piperazine] |
| 107 | CC(C)(C)n1nnnc1C(c1cccc2ccccc12)N1CCN(c2c(Cl)cncc2Cl)CC1 (centres unmarked) [Compound 39, 1-((1-(tert-butyl)-1H-tetrazol-5-yl)(naphthalen-1-yl)methyl)-4-(3,5-dichloropyridin-4-yl)piperazine] |
| 96.8 | CCCCn1nnnc1C(c1cc2ccccc2o1)N1CCN(c2c(Cl)cncc2Cl)CC1 (centres unmarked) [Compound 28, 1-(benzofuran-2-yl(1-butyl-1H-tetrazol-5-yl)methyl)-4-(3,5-dichloropyridin-4-yl)piperazine] |
| 111 | Cc1cccc(C)c1-n1nnnc1C(c1cccc(O)c1)N1CCN(c2c(Cl)cncc2Cl)CC1 (centres unmarked) [Compound 20, 3-((4-(3,5-dichloropyridin-4-yl)piperazin-1-yl)(1-(2,6-dimethylphenyl)-1H-tetrazol-5-yl)methyl)phenol] |
| 104 | CC(C)(C)n1nnnc1C(c1cccs1)N1CCN(c2c(Cl)cncc2Cl)CC1 (centres unmarked) [Compound 9] |
| 95.8 | CCCCC(c1nnnn1C(C)C)N1CCN(c2c(Cl)cncc2Cl)CC1 (centres unmarked) [Compound 52, 1-(3,5-dichloropyridin-4-yl)-4-(1-(1-isopropyl-1H-tetrazol-5-yl)pentyl)piperazine] |
| 72.4 | COC(=O)Cn1nnnc1C(c1cccc(O)c1)N1CCN(c2c(Cl)cncc2Cl)CC1 (centres unmarked) [Compound 53, Methyl 2-(5-((4-(3,5-dichloropyridin-4-yl)piperazin-1-yl)(3-hydroxyphenyl)methyl)-1H-tetrazol-1-yl)acetate] |
| 108 | CC(C)(C)n1nnnc1C(c1ccnc2ccccc12)N1CCN(c2c(Cl)cncc2Cl)CC1 (centres unmarked) [Compound 29, 4-((1-(tert-butyl)-1H-tetrazol-5-yl)(4-(3,5-dichloropyridin-4-yl)piperazin-1-yl)methyl)quinoline] |
| 102 | CCCCn1nnnc1C(c1cc2ccccc2[nH]1)N1CCN(c2c(Cl)cncc2Cl)CC1 (centres unmarked) [Compound 46, 2-((1-butyl-1H-tetrazol-5-yl)(4-(3,5-dichloropyridin-4-yl)piperazin-1-yl)methyl)-1H-indole] |
| 87.6 | CCCCn1nnnc1C(c1ccc2ccccc2c1)N1CCN(c2c(Cl)cncc2Cl)CC1 (centres unmarked) [Compound 40, 1-((1-butyl-1H-tetrazol-5-yl)(naphthalen-2-yl)methyl)-4-(3,5-dichloropyridin-4-yl)piperazine] |
| 98.2 | CCCCn1nnnc1C(c1cccs1)N1CCN(c2c(Cl)cncc2Cl)CC1 (centres unmarked) [Compound 10, 1-((1-butyl-1H-tetrazol-5-yl)(thiophen-2-yl)methyl)-4-(3,5-dichloropyridin-4-yl)piperazine] |
| 96.7 | CC(C)n1nnnc1C(c1ccco1)N1CCN(c2c(Cl)cncc2Cl)CC1 (centres unmarked) [Compound 50, 1-(3,5-dichloropyridin-4-yl)-4-(furan-2-yl(1-isopropyl-1H-tetrazol-5-yl)methyl)piperazine] |
| 109 | CC(C)(C)n1nnnc1C(CCc1ccccc1)N1CCN(c2c(Cl)cncc2Cl)CC1 (centres unmarked) [Compound 70, 1-(1-(1-(tert-butyl)-1H-tetrazol-5-yl)-3-phenylpropyl)-4-(3,5-dichloropyridin-4-yl)piperazine] |
| 96 | CCCCn1nnnc1C(CCc1ccccc1)N1CCN(c2c(Cl)cncc2Cl)CC1 (centres unmarked) [Compound 69, 1-(1-(1-butyl-1H-tetrazol-5-yl)-3-phenylpropyl)-4-(3,5-dichloropyridin-4-yl)piperazine] |
| 99.8 | CCCCn1nnnc1C(c1ccc(C#N)cc1)N1CCN(c2c(Cl)cncc2Cl)CC1 (centres unmarked) [Compound 34, 4-((1-butyl-1H-tetrazol-5-yl)(4-(3,5-dichloropyridin-4-yl)piperazin-1-yl)methyl)benzonitrile] |
| 108 | CC(C)(C)n1nnnc1C(c1cc2ccccc2o1)N1CCN(c2c(Cl)cncc2Cl)CC1 (centres unmarked) [Compound 2, 1-(benzofuran-2-yl(1-(tert-butyl)-1H-tetrazol-5-yl)methyl)-4-(3,5-dichloropyridin-4-yl)piperazine] |

Same assay, conditions: Table II

| IC50 [nM] | Compound |
| --- | --- |
| 381 | CCCCn1nnnc1C(c1cc2ccccc2[nH]1)N1CCN(c2c(Cl)cncc2Cl)CC1 (centres unmarked) [Compound 46, 2-((1-butyl-1H-tetrazol-5-yl)(4-(3,5-dichloropyridin-4-yl)piperazin-1-yl)methyl)-1H-indole] |
| 1710 | CCCCn1nnnc1CN1CCN(c2c(Cl)cncc2Cl)CC1 [Compound 5, 1-((1-butyl-1H-tetrazol-5-yl)methyl)-4-(3,5-dichloropyridin-4-yl)piperazine] |
| 1280 | CC(C)(C)n1nnnc1C(CCc1ccccc1)N1CCN(c2c(Cl)cncc2Cl)CC1 (centres unmarked) [Compound 70, 1-(1-(1-(tert-butyl)-1H-tetrazol-5-yl)-3-phenylpropyl)-4-(3,5-dichloropyridin-4-yl)piperazine] |
| 557 | CC(C)(C)n1nnnc1C(c1cc2ccccc2o1)N1CCN(c2c(Cl)cncc2Cl)CC1 (centres unmarked) [Compound 2, 1-(benzofuran-2-yl(1-(tert-butyl)-1H-tetrazol-5-yl)methyl)-4-(3,5-dichloropyridin-4-yl)piperazine] |
